In ChEMBL document CHEMBL1124998, “3-(2-carboxyindol-3-yl)propionic acid derivatives: antagonists of the strychnine-insensitive glycine receptor associated with the N-methyl-D-aspartate receptor complex” (J Med Chem, 1990):
pIC50: −log10 of the molar value.

Key:
[1] = biological target: Glutamate NMDA receptor (Rattus norvegicus) (UniProt P35439+Q00959+Q00960+Q00961+Q62645+Q8VHN2+Q9R1M7); assay: Selectivity ratio for CPP and gly NMDA binding; format: protein-complex assay
Rattus norvegicus = species: Rattus norvegicus; assay: Activity was determined by inhibition of glutamate stimulated accumulation of cyclic GMP in neonatal rat cerebral slices.; format: functional
Glutamate NMDA receptor [2] = assay: Activity against rat cortical and hippocampal membrane strychnine-insensitive N-methyl-D-aspartate glutamate receptor 1 using [3H]-gly; format: tissue-based, Hippocampus
Glutamate NMDA receptor [3] = assay: Activity against rat cortical and hippocampal membrane N-methyl-D-aspartate glutamate receptor 1/2A/2B/2C/2D using [3H]CPP; format: tissue-based, Hippocampus

Ratio [1] | pIC50 (Rattus norvegicus) | pIC50 (Glutamate NMDA receptor [2]) | pIC50 (Glutamate NMDA receptor [3]) | Structure (SMILES)
40 | – | 3.97 | 2.38 | O=C(O)c1cc2ccccc2[nH]1 [INDOLE-2-CARBOXYLIC ACID]
> 1 | – | 4.05 | < 4.00 | O=C(O)CCc1c(C(=O)O)[nH]c2c(Cl)cccc12
> 150 | – | 5.22 | < 3.00 | O=C(O)c1cc2c(Cl)cc(Cl)cc2[nH]1
150 | 5.60 | 7.10 | 4.92 | O=C(O)c1cc(O)c2c(Cl)cc(Cl)cc2n1
1.8 | – | 4.85 | 4.60 | O=C(O)CCc1c(C(=O)O)[nH]c2ccc(Cl)cc12
– | 3.78 | – | – | O=C(O)c1cc(=O)c2ccccc2[nH]1 [TRANSTORINE]

The remaining lines, values behind:

Structure (SMILES) | Ratio [1] | pIC50 (Rattus norvegicus) | pIC50 (Glutamate NMDA receptor [2]) | pIC50 (Glutamate NMDA receptor [3])
O=C(O)CCc1c(C(=O)O)[nH]c2cc(Cl)cc(Cl)c12 | 2550 | 5.30 | 6.85 | 3.45
O=C(O)CCc1c(C(=O)O)[nH]c2ccccc12 | 1 | – | 4.52 | 4.47
O=C(O)CCc1c(C(=O)O)[nH]c2cccc(Cl)c12 | 10 | – | 5.22 | 4.23
O=C(O)CCc1c(C(=O)O)[nH]c2cc(Cl)ccc12 | 105 | – | 5.57 | 3.55
O=C(O)c1cc(O)c2ccc(Cl)cc2n1 [7-CHLOROKYNURENIC ACID] | 405 | 5.10 | 6.40 | 3.79
